# Data as given in paper PMC6773865, “Functional recruitment of dynamin requires multimeric interactions for efficient endocytosis” (Nature Communications, 2019).
# pKd: −log10 of the molar value.
# Columns and labels:
# [1] = test system: clathrin mediated endocytosis (TfR-SEP) in NIH 3T3 cells; assay: ppH assay combined with patch-clamp dialysis; assay type: cell-based; conditions: for event frequency ratio f = FWC/FCA: event frequency 8–10 min whole cell over 3–5 min cell attached, same cell, average ± SEM, SEM; for inhibition of endocytosis on dialysis: peptide dialysed through patch pipette, 3T3 cells, ppH assay
# Protocol: To do so, we monitored cellular endocytic activity using the ppH assay with new developments for fully automated analysis on a large number of cells (See “Methods” and Supplementary Fig. 4). We combined this assay, which monitors in real time the endocytic activity of cells, with the patch-clamp technique in order to dialyse the relevant peptide at a known concentration inside the cellular cytoplasm to inhibit endocytosis acutely. Each recording consisted of 5 min in cell-attached mode (CA) with no dialysis followed by 10 min in whole cell mode (WC) during which the inhibitors were dialysed (Fig. 5a, b). Each recording therefore had its own internal control condition, i.e., the cell-attached mode, from which we obtained the frequency ratio f = FWC/FCA, where F is the event frequency recorded during the indicated mode. Of note, the electrical parameters of patch clamp recordings were similar in all conditions (Supplementary Fig. 5). To assess the innocuousness of this assay, we monitored the endocytic activity of unperturbed cells vs. cells dialysed with a control solution (see methods for composition). Patching the cells minimally affected their endocytic activity over a 10 min period (event frequency f = 67.3 ± 4.3%, n = 60, vs. 90.7 ± 14.9% in no patching recordings, n = 8, p = 0.58).
# NIH 3T3 cells (ECACC 93061524) were cultured in DMEM supplemented with 1% sodium pyruvate, 1% glutamax and 10% fetal calf serum (Invitrogen). Cells were incubated at 37 °C in 5% CO2 until use and subcultured every 2 to 4 days for maintenance up to passage 20. Cells were transfected with 1.5 μg of TfR-SEP plasmid 24 h prior to imaging and patch clamp. Care was taken to find the right balance between sufficient fluorescent signal to allow for proper imaging and reasonable overexpression to diminish potential saturation artefacts. Best results were obtained using Fugene 6 (Promega) as the transfection reagent but Lipofectamine 2000 (Invitrogen) has also been used in this study due to a temporary arrest of Fugene 6 production by the provider. All transfections were performed according to the manufacturers’ recommendations. Four to eight hours after transfection, cells were seeded at a density of ~70,000 cells ml^−1 on 18 mm glass coverslips coated with poly-L-lysine (3 min application of 0.1 mM polylysine (Sigma P2636) in borate buffer, pH 8.0 followed by a quick rinse in PBS) and used the next day.
# Fast solution exchange was controlled by electro-valves (Lee company) connected to a theta glass pipette (TG150, Harvard Apparatus) pulled to ∼100-μm tip size using a vertical puller (Narishige, World Precision Instruments) placed above the recorded cell. Cells were alternatively perfused with HEPES or MES buffered saline solutions (HBS/MBS) containing (in mM): 135 NaCl, 5 KCl, 0.4 MgCl2, 1.8 CaCl2, 1 D-glucose and 20 HEPES or MES. The pH was adjusted to 7.4 or 5.5 using NaOH and osmolarity to 310–315 mOsm L^−1 with NaCl.
# Cells were patched with pipettes made of borosilicate glass (GC150F, Harvard Apparatus) and pulled with a vertical Narishige puller (World Precision Instruments). The solution contained (in mM): 130–140 KCH3SO3, 1 EGTA, 0.1 CaCl2, 10–20 HEPES, 4 ATP (sodium or magnesium salt), 0.4 Na-GTP (or GTPγS when indicated), 5 phosphocreatine and 3 sodium ascorbate. pH was adjusted to 7.2 using KOH and osmolarity to ~300 mOsm L^−1. Sodium ascorbate was omitted in earlier recordings but was added for better stability. Chloride ions either came from 2 mM KCl, 10 mM NaCl or 4 mM MgCl2 (when Na-ATP was used) in various trials. All salts were purchased from Sigma-Aldrich. Cells were voltage-clamped at −60 mV with an EPC10 amplifier (HEKA) with series resistance and cell capacitance estimation every 4 s in the whole cell mode. The digital triggers of the amplifier were used to drive the electrovalves for pH changes. […]
# [2] = biological target: SH3 domain of amphiphysin (amphSH3); conditions: read-out: affinity for amphSH3; cited from earlier work
# Source text: The large GTPase dynamin is essential for vesicle scission[6] and is primarily recruited at the last steps of vesicle formation[4],[7],[8]. Many aspects of the function of this indispensable protein have been deciphered[9] but how its recruitment is regulated in cells is still a matter of debate. In this regard, the C-terminal proline/arginine rich domain of dynamin (dynPRD) is critical. It is a major interaction hub for Src-homology domain 3 (SH3) domain-containing endocytic accessory proteins[10] that bears several class I (RxxPxxP) and class II (PxxPxR) SH3-binding motifs (where P is prolin ...
Compound,"event frequency ratio f = FWC/FCA ([1]; 100 µM peptide in patch pipette, n = 13 (D15))","event frequency ratio f = FWC/FCA ([1]; 1 mM peptide in patch pipette, n = 22 (D15), 15 (D44), 6 (dD15-C))",inhibition of endocytosis on dialysis [1],pKd [2]
"Ac-YPPPQVPSRPNRAPPG-NH2 [D15, reference compound]",59.0 ± 5.0%,38.2 ± 3.9%,only partial,4.05
CC(=O)N[C@@H](Cc1ccc(O)cc1)C(=O)N[C@@H](CCCCn1cc(CCC(=O)NCCCOCCOCCOCCCNC(=O)CCC(=O)NCCCOCCOCCOCCCNC(=O)CCC(=O)NCCCOCCOCCOCCCNC(=O)CCC(=O)N2CCC[C@H]2C(=O)N2CCC[C@H]2C(=O)N2CCC[C@H]2C(=O)N[C@@H](CCC(N)=O)C(=O)N[C@H](C(=O)N2CCC[C@H]2C(=O)N[C@@H](CO)C(=O)N[C@@H](CCCNC(=N)N)C(=O)N2CCC[C@H]2C(=O)N[C@@H](CC(N)=O)C(=O)N[C@@H](CCCNC(=N)N)C(=O)N[C@@H](C)C(=O)N2CCC[C@H]2C(=O)N2CCC[C@H]2C(=O)NCC(N)=O)C(C)C)nn1)C(=O)NCCCOCCOCCOCCCNC(=O)CCC(=O)NCCCOCCOCCOCCCNC(=O)CCC(=O)NCCCOCCOCCOCCCNC(=O)CCC(=O)N1CCC[C@H]1C(=O)N1CCC[C@H]1C(=O)N1CCC[C@H]1C(=O)N[C@@H](CCC(N)=O)C(=O)N[C@H](C(=O)N1CCC[C@H]1C(=O)N[C@@H](CO)C(=O)N[C@@H](CCCNC(=N)N)C(=O)N1CCC[C@H]1C(=O)N[C@@H](CC(N)=O)C(=O)N[C@@H](CCCNC(=N)N)C(=O)N[C@@H](C)C(=O)N1CCC[C@H]1C(=O)N1CCC[C@H]1C(=O)NCC(N)=O)C(C)C [dD15-N],,,clearly increased efficiency over D15,
